This note sets out measurements from ChEMBL document CHEMBL4765259, “Synthesis and biological evaluation of novel shikonin-benzo[b]furan derivatives as tubulin polymerization inhibitors targeting the colchicine binding site” (Eur J Med Chem, 2020).

In general, IC50 refers to the concentration that inhibits the measured activity by half. Low values mean greater potency in that assay, high ones weaker potency in that assay. The CC50 is the concentration giving 50% cytotoxicity. Read a low CC50 as greater toxicity to the cells. The term inhibition denotes the drop in the measured response relative to a control, in per cent.

Data set [1] has as its system HCT-116. The data set is described as follows: cells. To be noted: Homo sapiens, HCT-116, 48 h.
Description: Antiproliferative activity against human HCT116 cells incubated for 48 hrs by MTT assay
Data set [2] concerns HepG2. The data set is described as follows: Antiproliferative activity against human HepG2 cells incubated for 48 hrs by MTT assay. The data set is classed as functional, cell-based. To be noted: HepG2, 48 h. (In general: Formazan colour is commonly taken as a measure of viable cells.)
A short description of data set [3]: Antiproliferative activity against human HEK293T cells incubated for 48 hrs by MTT assay. The data set is classed as cell-based, HEK-293T.
The subject of data set [4] is HT-29. The data set is described as follows: Antiproliferative activity against human HT29 cells incubated for 48 hrs by MTT assay. The data set is classed as functional, cell-based. To be noted: HT-29, 48 h.
The test system of data set [5] is K562. The data set is described as follows: Antiproliferative activity against drug resistant human K562 cells incubated for 48 hrs by MTT assay. The data set is classed as functional, cell-based. To be noted: K562, 48 h.
Data set [6] is filed under the species Homo sapiens. The data set is described as follows: Inhibition of [3H]colchicine binding to tubulin (unknown origin) at 4 uM incubated for 2 hrs by scintillation counting method relative to control.
A short description of data set [7]: Antiproliferative activity against human LO2 cells incubated for 48 hrs by MTT assay. The class given is cell-based, L02.
Data set [8] has as its system K562. The data set is described as follows: cells. To be noted: Homo sapiens, K562, 48 h.
Description: Antiproliferative activity against human K562 cells incubated for 48 hrs by MTT assay
Data set [9] concerns MCF7. The data set is described as follows: cells. To be noted: Homo sapiens, MCF7, 48 h.
For data set [10], the species on record is Homo sapiens. The data set is described as follows: Inhibition of [3H]colchicine binding to tubulin (unknown origin) at 2 uM incubated for 2 hrs by scintillation counting method relative to control.
Data set [11] can be described thus: Inhibition of tubulin polymerization (unknown origin) measured every 2 mins for 60 mins by spectrophotometric method. More on the design: species or system Homo sapiens.
The subject of data set [12] is MCF7. The data set is described as follows: cells. The note with it: Homo sapiens, MCF7, 48 h. This is another data set of the same source.
Description: Antiproliferative activity against drug-resistant human MCF7 cells incubated for 48 hrs by MTT assay
The test system of data set [13] is A549. The data set is described as follows: cells. To be noted: Homo sapiens, A549, 48 h.
Data set [14] relates to MDA-MB-231. The data set is described as follows: cells. The note with it: Homo sapiens, MDA-MB-231, 48 h.
Data set [15] concerns HT-29. The data set is described as follows: Induction of apoptosis in human HT-29 cells assessed as viable cells at […] measured after 24 hrs by Annexin V-FITC/propidium iodide staining based flow cytometry (reference value: 97.7 %). The class given is functional. The note with it: dose 0.25 µM, read-out: Activity. (In general: A flow cytometer gives signals particle by particle.)

Data set [16] has as its system HT-29. The data set is described as follows: Cell cycle arrest in human HT29 cells assessed as cell accumulation at G2 phase at 1 uM incubated for 24 hrs by propidium iodide staining based flow cytometry (reference value: 12.53 %). The class given is functional.
In data set [17] the test system is HT-29. The data set is described as follows: Induction of apoptosis in human HT-29 cells assessed as early apoptotic cells at 0.5 uM measured after 24 hrs by Annexin V-FITC/propidium iodide staining based flow cytometry (reference value: 1.1 %). The data set is classed as functional.
In data set [18] the test system is HT-29. The data set is described as follows: Induction of apoptosis in human HT-29 cells assessed as viable cells at 1 uM measured after 24 hrs by Annexin V-FITC/propidium iodide staining based flow cytometry (reference value: 97.7 %). The data set is classed as functional. To be noted: read-out: Activity.
The test system of data set [19] is HT-29. The data set is described as follows: Induction of apoptosis in human HT-29 cells assessed as early apoptotic cells at 1 uM measured after 24 hrs by Annexin V-FITC/propidium iodide staining based flow cytometry (reference value: 1.1 %). The class given is functional.
The test system of data set [20] is HT-29. The data set is described as follows: Induction of apoptosis in human HT-29 cells assessed as late apoptotic cells at […] measured after 24 hrs by Annexin V-FITC/propidium iodide staining based flow cytometry (reference value: 0.5 %). The class given is functional. To be noted: dose 0.25 µM.
Data set [21] relates to HT-29. The data set is described as follows: Cell cycle arrest in human HT29 cells assessed as cell accumulation at G1 phase at 1 uM incubated for 24 hrs by propidium iodide staining based flow cytometry (reference value: 70.33 %). The class given is functional.
Data set [22] relates to HT-29. The data set is described as follows: Cell cycle arrest in human HT29 cells assessed as cell accumulation at G1 phase at 0.5 uM incubated for 24 hrs by propidium iodide staining based flow cytometry (reference value: 70.33 %). The data set is classed as functional.
The test system of data set [23] is HT-29. The data set is described as follows: Induction of apoptosis in human HT-29 cells assessed as necrotic cells at 0.5 uM measured after 24 hrs by Annexin V-FITC/propidium iodide staining based flow cytometry (reference value: 0.7 %). The class given is functional.
The test system of data set [24] is HT-29. The data set is described as follows: Induction of apoptosis in human HT-29 cells assessed as early apoptotic cells at […] measured after 24 hrs by Annexin V-FITC/propidium iodide staining based flow cytometry (reference value: 1.1 %). The data set is classed as functional. To be noted: dose 0.25 µM.
Data set [25] deals with HT-29. The data set is described as follows: Induction of apoptosis in human HT-29 cells assessed as late apoptotic cells at 1 uM measured after 24 hrs by Annexin V-FITC/propidium iodide staining based flow cytometry (reference value: 0.5 %). The data set is classed as functional.
Data set [26] concerns HT-29. The data set is described as follows: Cell cycle arrest in human HT29 cells assessed as cell accumulation at G2 phase at 0.5 uM incubated for 24 hrs by propidium iodide staining based flow cytometry (reference value: 12.53 %). The class given is functional.
Data set [27] has as its system HT-29. The data set is described as follows: Cell cycle arrest in human HT29 cells assessed as cell accumulation at S phase at 0.5 uM incubated for 24 hrs by propidium iodide staining based flow cytometry (reference value: 17.15 %). The class given is functional.
Data set [28] has as its system HT-29. The data set is described as follows: Cell cycle arrest in human HT29 cells assessed as cell accumulation at S phase at […] incubated for 24 hrs by propidium iodide staining based flow cytometry (reference value: 17.15 %). The data set is classed as functional. The note with it: dose 0.25 µM.
Data set [29] relates to HT-29. The data set is described as follows: Cell cycle arrest in human HT29 cells assessed as cell accumulation at S phase at 1 uM incubated for 24 hrs by propidium iodide staining based flow cytometry (reference value: 17.15 %). The class given is functional.
The test system of data set [30] is HT-29. The data set is described as follows: Induction of apoptosis in human HT-29 cells assessed as late apoptotic cells at 0.5 uM measured after 24 hrs by Annexin V-FITC/propidium iodide staining based flow cytometry (reference value: 0.5 %). The class given is functional.
Data set [31] deals with HT-29. The data set is described as follows: Cell cycle arrest in human HT29 cells assessed as cell accumulation at G2 phase at […] incubated for 24 hrs by propidium iodide staining based flow cytometry (reference value: 12.53 %). The class given is functional. To be noted: dose 0.25 µM.
Data set [32] concerns HT-29. The data set is described as follows: Cell cycle arrest in human HT29 cells assessed as cell accumulation at G1 phase at […] incubated for 24 hrs by propidium iodide staining based flow cytometry (reference value: 70.33 %). The data set is classed as functional. The note with it: dose 0.25 µM.
Data set [33] relates to HT-29. The data set is described as follows: Induction of apoptosis in human HT-29 cells assessed as necrotic cells at 1 uM measured after 24 hrs by Annexin V-FITC/propidium iodide staining based flow cytometry (reference value: 0.7 %). The data set is classed as functional.
The subject of data set [34] is HT-29. The data set is described as follows: Induction of apoptosis in human HT-29 cells assessed as viable cells at 0.5 uM measured after 24 hrs by Annexin V-FITC/propidium iodide staining based flow cytometry (reference value: 97.7 %). The data set is classed as functional. The note with it: read-out: Activity.
Data set [35] deals with HT-29. The data set is described as follows: Induction of apoptosis in human HT-29 cells assessed as necrotic cells at […] measured after 24 hrs by Annexin V-FITC/propidium iodide staining based flow cytometry (reference value: 0.7 %). The note with it: dose 0.25 µM. The data set is classed as functional.

For `COc1ccc(/C=C\c2cc(OC)c(OC)c(OC)c2)cc1O` [COMBRETASTATIN A4], the IC50 in data set [1] is 110 nM; in [2], 270 nM; in data set [4], 310 nM; in data set [5] it was 6150 nM; in data set [8], 610 nM; in data set [9] it was 250 nM. The IC50 worked out at 1120 nM in data set [11], 490 nM in [12], 230 nM in data set [13] and 90 nM in data set [14]. Moreover, the half-maximal cytotoxic concentration (CC50) at 48 h was found to be 1440 nM in data set [3] and 360 nM in [7]. Besides, the inhibition came out at 93% in [6] and 81.5% in data set [10].
Consider `COc1cccc2c1C(=O)c1c(O)c3c(c(O)c1C2=O)C[C@@](O)(C(=O)CO)C[C@@H]3O[C@H]1C[C@H](N)[C@H](O)[C@H](C)O1` [DOXORUBICIN], for which the IC50 was 16300 nM in data set [5] and 210 nM in data set [8].
On to `CC(C)=CC[C@@H](O)C1=CC(=O)c2c(O)ccc(O)c2C1=O` [SHIKONIN], for which the viability at […] in [15] was determined as 91%. Also, the Activity is listed as 24.51% in data set [16]; 11.9% in [17]; 19.5% in [19]; 0.7% in [20]; 32.11% in data set [21]; 50.02% in data set [22]. In addition, the Activity was found to be 0.7% in [23]; 7.1% in data set [24]; 3.2% in [25]; 22.9% in data set [26]; 27.08% in data set [27]; 28.1% in data set [28]. For the same compound, the Activity was 43.57% in data set [29]; 0.4% in data set [30]; 19.5% in [31]; 52.4% in data set [32]; 0.6% in data set [33]; 1.2% in [35]. In addition, the half-inhibitory concentration (IC50) was found to be 2470 nM in [1]; 2920 nM in data set [2]; 2800 nM in [4]; 121000 nM in data set [5]; 20300 nM in data set [8]; 5400 nM in [9]. In addition, the IC50 in data set [12] turned out to be 23400 nM; in data set [13], 10200 nM; in data set [14], 2770 nM. In addition, the viability at 1 µM in [18] was 76.7%. The CC50 at 48 h amounted to 7000 nM in data set [3] and 11800 nM in [7]. In data set [34], the viability at 0.5 µM was 87%.
